# Experimental data: PubChem BioAssay (NCI)
#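 Grown in 96-well plates, cells were treated for 48 hours with each compound at five concentrations. Insufficient inhibition: endpoint recorded as highest concentration tested. GI50 = concentration required for 50% inhibition of growth. TGI marks complete inhibition of growth.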
# How the values were obtained:
# Assay in all cases: inhibition of tumour cell growth, NCI panel, 48 h
# 786-0 renal = tested on: 786-0 renal
# A498 renal = tested on: A498 renal
# A549 NSCLC = tested on: A549 NSCLC
# ACHN renal = tested on: ACHN renal
# BT-549 breast = tested on: BT-549 breast
# CAKI-1 renal = tested on: CAKI-1 renal
# COLO 205 colon = tested on: COLO 205 colon
# DU-145 prostate = tested on: DU-145 prostate
# HCC-2998 colon = tested on: HCC-2998 colon
# HCT-116 colon = tested on: HCT-116 colon
# HCT-15 colon = tested on: HCT-15 colon
# HOP-62 NSCLC = tested on: HOP-62 NSCLC
# HOP-92 NSCLC = tested on: HOP-92 NSCLC
# HS 578T breast = tested on: HS 578T breast
# IGROV1 ovarian = tested on: IGROV1 ovarian
# K-562 leukemia = tested on: K-562 leukemia
# KM12 colon = tested on: KM12 colon
# LOX IMVI melanoma = tested on: LOX IMVI melanoma
# M14 melanoma = tested on: M14 melanoma
# MALME-3M melanoma = tested on: MALME-3M melanoma
# MCF7 breast = tested on: MCF7 breast
# MDA-MB-231 breast = tested on: MDA-MB-231 breast
# MDA-MB-435 = tested on: MDA-MB-435
# MOLT-4 leukemia = tested on: MOLT-4 leukemia
# NCI-H226 lung = tested on: NCI-H226 lung
# NCI-H23 lung = tested on: NCI-H23 lung
# NCI-H460 lung = tested on: NCI-H460 lung
# NCI-H522 lung = tested on: NCI-H522 lung
# NCI/ADR-RES ovarian = tested on: NCI/ADR-RES ovarian
# OVCAR-3 ovarian = tested on: OVCAR-3 ovarian
# OVCAR-4 ovarian = tested on: OVCAR-4 ovarian
# OVCAR-5 ovarian = tested on: OVCAR-5 ovarian
# OVCAR-8 ovarian = tested on: OVCAR-8 ovarian
# PC-3 prostate = tested on: PC-3 prostate
# RPMI-8226 leukemia = tested on: RPMI-8226 leukemia
# RXF 393 renal = tested on: RXF 393 renal
# SF-268 CNS = tested on: SF-268 CNS
# SF-295 CNS = tested on: SF-295 CNS
# SF-539 CNS = tested on: SF-539 CNS
# SK-MEL-2 melanoma = tested on: SK-MEL-2 melanoma
# SK-MEL-28 melanoma = tested on: SK-MEL-28 melanoma
# SK-MEL-5 melanoma = tested on: SK-MEL-5 melanoma
# SK-OV-3 ovarian = tested on: SK-OV-3 ovarian
# SN12C renal = tested on: SN12C renal
# SNB-19 CNS = tested on: SNB-19 CNS
# SNB-75 CNS = tested on: SNB-75 CNS
# SR leukemia = tested on: SR leukemia
# T-47D breast = tested on: T-47D breast
# TK-10 renal = tested on: TK-10 renal
# U251 CNS = tested on: U251 CNS
# UACC-257 melanoma = tested on: UACC-257 melanoma
# UACC-62 melanoma = tested on: UACC-62 melanoma
# UO-31 renal = tested on: UO-31 renal
smiles,measurement,setting,value
CCC[CH2][Sn]1([CH2]CCC)[O]C2C(CO)OC(n3ccc(N)nc3=O)C2[O]1 (stereo unspecified),GI50,786-0 renal,1.54 µM
same,TGI,786-0 renal,2.88 µM
same,GI50,A498 renal,0.271 µM
same,TGI,A498 renal,1.17 µM
same,GI50,A549 NSCLC,2.38 µM
same,TGI,A549 NSCLC,4.73 µM
same,GI50,ACHN renal,1.35 µM
same,TGI,ACHN renal,2.67 µM
same,GI50,BT-549 breast,1.42 µM
same,TGI,BT-549 breast,2.73 µM
same,GI50,CAKI-1 renal,1.19 µM
same,TGI,CAKI-1 renal,2.53 µM
same,GI50,COLO 205 colon,1.48 µM
same,TGI,COLO 205 colon,3.15 µM
same,GI50,DU-145 prostate,1.34 µM
same,TGI,DU-145 prostate,2.61 µM
same,GI50,HCC-2998 colon,1.66 µM
same,TGI,HCC-2998 colon,3.2 µM
same,GI50,HCT-116 colon,1.44 µM
same,TGI,HCT-116 colon,2.79 µM
same,GI50,HCT-15 colon,1.27 µM
same,TGI,HCT-15 colon,2.7 µM
same,GI50,HOP-62 NSCLC,2.24 µM
same,TGI,HOP-62 NSCLC,3.99 µM
same,GI50,HOP-92 NSCLC,0.361 µM
same,TGI,HOP-92 NSCLC,1.98 µM
same,GI50,HS 578T breast,1.29 µM
same,TGI,HS 578T breast,4.14 µM
same,GI50,IGROV1 ovarian,1.02 µM
same,TGI,IGROV1 ovarian,2.78 µM
same,GI50,K-562 leukemia,0.297 µM
same,TGI,K-562 leukemia,> 100 µM
same,GI50,KM12 colon,1.68 µM
same,TGI,KM12 colon,3.13 µM
same,GI50,LOX IMVI melanoma,0.384 µM
same,TGI,LOX IMVI melanoma,1.65 µM
same,GI50,M14 melanoma,1.55 µM
same,TGI,M14 melanoma,3.09 µM
same,GI50,MALME-3M melanoma,0.701 µM
same,TGI,MALME-3M melanoma,2.15 µM
same,GI50,MCF7 breast,0.3 µM
same,TGI,MCF7 breast,1.42 µM
same,GI50,MDA-MB-231 breast,0.818 µM
same,TGI,MDA-MB-231 breast,2.19 µM
same,GI50,MDA-MB-435,1.41 µM
same,TGI,MDA-MB-435,2.88 µM
same,GI50,MOLT-4 leukemia,1.64 µM
same,TGI,MOLT-4 leukemia,> 100 µM
same,GI50,NCI-H226 lung,2.02 µM
same,TGI,NCI-H226 lung,4.25 µM
same,GI50,NCI-H23 lung,1.35 µM
same,TGI,NCI-H23 lung,3.08 µM
same,GI50,NCI-H460 lung,1.79 µM
same,TGI,NCI-H460 lung,3.6 µM
same,GI50,NCI-H522 lung,0.186 µM
same,TGI,NCI-H522 lung,0.424 µM
same,GI50,NCI/ADR-RES ovarian,2.01 µM
same,TGI,NCI/ADR-RES ovarian,4.37 µM
same,GI50,OVCAR-3 ovarian,1.58 µM
same,TGI,OVCAR-3 ovarian,2.94 µM
same,GI50,OVCAR-4 ovarian,1.33 µM
same,TGI,OVCAR-4 ovarian,2.68 µM
same,GI50,OVCAR-5 ovarian,1.57 µM
same,TGI,OVCAR-5 ovarian,3.03 µM
same,GI50,OVCAR-8 ovarian,1.66 µM
same,TGI,OVCAR-8 ovarian,3.11 µM
same,GI50,PC-3 prostate,1.66 µM
same,TGI,PC-3 prostate,3.26 µM
same,GI50,RPMI-8226 leukemia,0.29 µM
same,TGI,RPMI-8226 leukemia,2.02 µM
same,GI50,RXF 393 renal,1.22 µM
same,TGI,RXF 393 renal,2.48 µM
same,GI50,SF-268 CNS,1.08 µM
same,TGI,SF-268 CNS,2.47 µM
same,GI50,SF-295 CNS,1.93 µM
same,TGI,SF-295 CNS,3.72 µM
same,GI50,SF-539 CNS,1.41 µM
same,TGI,SF-539 CNS,2.72 µM
same,GI50,SK-MEL-2 melanoma,0.964 µM
same,TGI,SK-MEL-2 melanoma,2.29 µM
same,GI50,SK-MEL-28 melanoma,1.29 µM
same,TGI,SK-MEL-28 melanoma,2.66 µM
same,GI50,SK-MEL-5 melanoma,1.61 µM
same,TGI,SK-MEL-5 melanoma,2.99 µM
same,GI50,SK-OV-3 ovarian,1.82 µM
same,TGI,SK-OV-3 ovarian,3.38 µM
same,GI50,SN12C renal,1.45 µM
same,TGI,SN12C renal,2.83 µM
same,GI50,SNB-19 CNS,1.55 µM
same,TGI,SNB-19 CNS,2.93 µM
same,GI50,SNB-75 CNS,1.05 µM
same,TGI,SNB-75 CNS,2.28 µM
same,GI50,SR leukemia,0.549 µM
same,TGI,SR leukemia,> 100 µM
same,GI50,T-47D breast,0.383 µM
same,TGI,T-47D breast,2.49 µM
same,GI50,TK-10 renal,1.15 µM
same,TGI,TK-10 renal,2.38 µM
same,GI50,U251 CNS,1.52 µM
same,TGI,U251 CNS,2.87 µM
same,GI50,UACC-257 melanoma,1.28 µM
same,TGI,UACC-257 melanoma,2.61 µM
same,GI50,UACC-62 melanoma,1.12 µM
same,TGI,UACC-62 melanoma,2.41 µM
same,GI50,UO-31 renal,1.16 µM
same,TGI,UO-31 renal,2.43 µM
